Laboratory results reported in patent US20250262170A1, “COMBINATIONS OF BETA 2-ADRENERGIC RECEPTOR AGONISTS AND BETA 3-ADRENERGIC RECEPTOR AGONISTS, AND MEDICAL USES THEREOF” (ATROGI AB, priority 2022, published 2025).

Biological target: T1, human β3-adrenergic receptor (Homo sapiens, UniProt P13945)
T1 construct: expressed in transfected cells
Assay: cAMP levels in CHO-K1 cells expressing the human β3-adrenergic receptor
Type: cell-based
Details: 15 min; for Emax at 10 µM: CHO-K1, 0.25 h, read-out: Activity (intracellular cAMP compared to that of isoproterenol); for Activity (intracellular cAMP compared to that of isoproterenol): 10 μM
Method: CHO-K1 cells stably expressing the human β3-adrenergic receptors were serum-starved overnight and stimulated with an agonist, final concentration 1×10^−5 M, for 15 min in stimulation buffer (HBSS supplemented with 1% BSA, 5 mM HEPES and 1 mM IBMX, pH 7.4) The medium was then aspirated and to end the reaction, 100 μL of 95% EtOH was added to each well of the 24-well plate and cells were kept at −20° C. overnight. The next day EtOH was allowed to evaporate and 250 μL of lysis buffer (1% BSA, 5 mM HEPES and 0.3% Tween-20, pH 7.4) was added to each well. The plate was kept at −80° C. for 30 min and thawed in room temperature. Intracellular cAMP levels were detected using an alpha screen cAMP kit (6760635D from Perkin Elmer). The activity for each compound is compared to that of isoproterenol.

T1 sequence (P13945 whole entry): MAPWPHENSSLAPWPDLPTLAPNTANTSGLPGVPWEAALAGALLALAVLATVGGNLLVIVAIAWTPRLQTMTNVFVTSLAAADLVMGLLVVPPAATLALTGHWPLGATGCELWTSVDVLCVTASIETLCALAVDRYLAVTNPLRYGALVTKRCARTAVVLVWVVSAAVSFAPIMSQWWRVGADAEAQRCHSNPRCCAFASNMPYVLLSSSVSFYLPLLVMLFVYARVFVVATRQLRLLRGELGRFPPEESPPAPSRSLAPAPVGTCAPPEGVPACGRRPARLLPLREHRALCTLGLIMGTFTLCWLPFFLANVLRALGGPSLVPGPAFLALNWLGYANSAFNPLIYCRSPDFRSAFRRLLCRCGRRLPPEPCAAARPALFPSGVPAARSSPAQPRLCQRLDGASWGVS

SMILES | Emax at 10 µM | Activity (intracellular cAMP compared to that of isoproterenol)
CCS(=O)(=O)N[C@H]1CC[C@H](CC(C)(C)NC[C@H](O)c2cncc(F)c2)CC1 [Compound 21, N-((trans)-4-(2-(((R)-2-(5-fluoropyridin-3-yl)-2-hydroxyethyl)amino)-2-methylpropyl)cyclohexyl)-ethanesulfonamide] | > 75% | 
CC(C)(C[C@H]1CC[C@H](NS(C)(=O)=O)CC1)NC[C@H](O)c1cccc(F)c1 [Compound 45, N-((trans)-4-(2-(((R)-2-(3-fluorophenyl)-2-hydroxy-ethyl)amino)-2-methyl-propyl)cyclohexyl)methane-sulfonamide] |  | ++ (activity of more than 75% of that of isoproterenol at 10 μM)
CC(C)(C[C@H]1CC[C@H](NS(C)(=O)=O)CC1)NC[C@H](O)c1cccc(C#N)n1 [Compound 35, N-((trans)-4-(2-(((S)-2-(6-cyanopyridin-2-yl)-2-hydroxyethyl)amino)-2-methylpropyl)cyclohexyl)-methanesulfonamide] | > 75% | 
CC(=O)N[C@H]1CC[C@@H](C[C@@H]2CC[C@H]([C@H](O)c3cccc(F)c3F)N2)CC1 [Compound 1, N-((cis)-4-(((2S,5R)-5-((R)-(2,3-difluorophenyl)-(hydroxy)methyl)pyrrolidin-2-yl)methyl)cyclohexyl)-acetamide] | > 75% | 
CCS(=O)(=O)N[C@H]1CC[C@@H](CC(C)(C)NC[C@H](O)c2cncc(F)c2)CC1 [Compound 18, N-((cis)-4-(2-(((R)-2-(5-fluoropyridin-3-yl)-2-hydroxyethyl)amino)-2-methylpropyl)cyclo-hexyl)ethanesulfonamide] |  | + +
CCCS(=O)(=O)N[C@H]1CC[C@H](CC(C)(C)NC[C@H](O)c2cncc(F)c2)CC1 [Compound 10, N-((trans)-4-(2-(((R)-2-(5-fluoropyridin-3-yl)-2-hydroxyethyl)amino)-2-methylpropyl)cyclohexyl)-propane-1-sulfonamide] | > 75% | 
CCCCNC[C@H](O)c1ccc(O)cc1 [Compound 70, (R)-4-(2-(butylamino)-1-hydroxyethyl)phenol] | 50 to 75% | 
CC12CC(C1)[C@H]([C@H](O)c1cccc(F)c1)N2 [Compound 55, (R)-(3-fluorophenyl)((R)-1-methyl-2-azabicyclo[2.1.1]-hexan-3-yl)methanol] | 50 to 75% | 
CC(C)(C[C@H]1CC[C@H](NS(=O)(=O)C(F)(F)F)CC1)NC[C@H](O)c1cncc(F)c1 [Compound 11, 1,1,1-trifluoro-N-((1R,4r)-4-(2-(((R)-2-(5-fluoropyridin-3-yl)-2-hydroxyethyl)amino)-2-methylpropyl)cyclohexyl)-methanesulfonamide] | > 75% | 
CC(C)(C[C@H]1CC[C@H](NS(C)(=O)=O)CC1)NC[C@H](O)c1cncc(F)c1 [Compound 46, N-((trans)-4-(2-(((R)-2-(5-fluoropyridin-3-yl)-2-hydroxyethyl)amino)-2-methylpropyl)cyclohexyl) methanesulfonamide] | > 75% | 
CCC[C@@H](C)NC[C@H](O)c1cccc(O)c1 [Compound 69, 3-((R)-1-hydroxy-2-(((R)-pentan-2-yl)amino)ethyl)-phenol] | > 75% | 
CC(C)CS(=O)(=O)N[C@H]1CC[C@@H](CC(C)(C)NC[C@H](O)c2cncc(F)c2)CC1 [Compound 14, N-((cis)-4-(2-(((R)-2-(5-fluoropyridin-3-yl)-2-hydroxyethyl)amino)-2-methylpropyl)cyclohexyl)-2-methylpropane-1-sulfonamide] | 50 to 75% | 
CO[C@H]1CC[C@H](C[C@H]2CC[C@H]([C@H](O)c3ccccc3F)N2)CC1 [Compound 48, (R)-(2-fluorophenyl)((2R,5R)-5-(((trans)-4-methoxycyclo-hexyl)methyl)pyrrolidin-2-yl)-methanol] | 50 to 75% | 
CC(C)CS(=O)(=O)N[C@H]1CC[C@H](CC(C)(C)NC[C@H](O)c2cncc(F)c2)CC1 [Compound 20, N-((trans)-4-(2-(((R)-2-(5-fluoropyridin-3-yl)-2-hydroxyethyl)amino)-2-methylpropyl)cyclohexyl)-2-methylpropane-1-sulfonamide] | > 75% | 
CO[C@H]1CC[C@H](CC[C@@H]2CC[C@H]([C@H](O)c3cccc(F)c3)N2)CC1 [Compound 39, (R)-(3-fluorophenyl)((2R,5R)-5-(2-((tranbs)-4-methoxy-cyclohexyl)ethyl)pyrrolidin-2-yl)methanol] | > 75% | 
CC(C)(C)NC[C@H](O)c1cccc(F)c1F [Compound 65, (R)-2-(tert-butylamino)-1-(2,3-difluorophenyl)ethan-1-ol] | > 75% | 
CC(C)(C)NC[C@H](O)c1ccc(F)c(N)c1F [Compound 59, (R)-1-(3-amino-2,4-difluoro-phenyl)-2-(tert-butylamino)-ethan-1-ol] | > 75% | 

Continued, in another order:

Emax at 10 µM | SMILES | Activity (intracellular cAMP compared to that of isoproterenol)
> 75% | CO[C@H]1CC[C@H](CC(C)(C)NC[C@H](O)c2ccc(F)c(N)c2F)CC1 [Compound 37, (R)-1-(3-amino-2,4-difluoro-phenyl)-2-((1-((trans)-4-methoxycyclohexyl)-2-methylpropan-2-yl)amino)-ethan-1-ol] | 
> 75% | CCCS(=O)(=O)N[C@H]1CC[C@H](CC(C)(C)NC[C@H](O)c2cccc(F)c2)CC1 [Compound 31, N-((trans)-4-(2-(((R)-2-(3-fluorophenyl)-2-hydroxy-ethyl)amino)-2-methyl-propyl)cyclohexyl)propane-1-sulfonamide] | 
> 75% | CCS(=O)(=O)N[C@H]1CC[C@H](CC(C)(C)NC[C@H](O)c2cccc(F)c2)CC1 [Compound 17, N-((trans)-4-(2-(((R)-2-(3-fluorophenyl)-2-ethyl)amino)-2-methylpropyl)cyclohexyl)-ethanesulfonamide] | 
> 75% | CC(C)CS(=O)(=O)N[C@H]1CC[C@@H](CC(C)(C)NC[C@H](O)c2cccc(F)c2)CC1 [Compound 16, N-((cis)-4-(2-(((R)-2-(3-fluorophenyl)-2-hydroxy-ethyl)amino)-2-methyl-propyl)cyclohexyl)-2-methyl-propane-1-sulfonamide] | 
50 to 75% | COC(=O)[C@H]1CC[C@H](CCC(C)(C)NC[C@H](O)c2cncc(F)c2)CC1 [Compound 47, methyl (trans)-4-(3-(((R)-2-(5-fluoropyridin-3-yl)-2-hydroxyethyl)amino)-3-methylbutyl)cyclohexane-1-carboxylate] | 
> 75% | CCCCS(=O)(=O)N[C@H]1CC[C@@H](CC(C)(C)NC[C@H](O)c2cccc(F)c2)CC1 [Compound 12] | 
50 to 75% | CC(C)(CC[C@H]1CC[C@@H](O)CC1)NC[C@H](O)c1ccccc1F [Compound 50, (cis)-4-(3-(((R)-2-(2-fluoro-phenyl)-2-hydroxyethyl)-amino)-3-methylbutyl)-cyclohexan-1-ol] | 
> 75% | CC(C)(CC[C@H]1CC[C@H](O)CC1)NC[C@H](O)c1ccccc1F [Compound 51, (trans)-4-(3-(((R)-2-(2-fluorophenyl)-2-hydroxy-ethyl)amino)-3-methylbutyl)-cyclohexan-1-ol] | 
50 to 75% | CC(C)(C[C@H]1CC[C@H](C#N)CC1)NC[C@H](O)c1cccc(F)c1 [Compound 40, (trans)-4-(2-(((R)-2-(3-fluorophenyl)-2-hydroxy-ethyl)amino)-2-methyl-propyl)cyclohexane-1-carbonitrile] | 
